Experimental data reported in patent publication US9878984B2, “Anti-cancer compounds” (NORTHWESTERN UNIVERSITY, priority 2008, dated 2018).

What was measured:
[1] = test system: Normal cells (PBMC, HUVEC, and WI-38); assay: Cancer cell selective growth inhibition (cancer cells vs normal cells); type: cell-based, human; details: 72 hr MTS
Protocol: […] Peripheral blood mononuclear cells (PBMCs) were voluntarily collected from a healthy laboratory worker by standard sterile phlebotomy techniques and isolated using Vacutainer CPT collection tubes (BD Biosciences—Bedford, Mass.). PBMCs were isolated freshly for each experiment. All DMEM and RPMI-1640 media was supplemented with 10% FBS (Atlanta Biologicals—Lawrenceville, Ga.) and 100 U/mL penicillin and streptomycin (Invitrogen). HUVEC (Human umbilical vein endothelial cells) were cultured in EGM-2 media with supplements provided in the manufacturers BulletKit (Lonza—Walersville, Md.). All cells were maintained at 37° C. and in a 5% CO2 atmosphere.
Growth Inhibition Assays: HeLa, MDA-MB-231, PC-3M, WI-38, and HUVEC cells were plated at 5,000 cells per well in 96 well plates and allowed to attach for 20 hr (8 hr for HeLa). The media was removed and 198 μL of fresh media was added to each well. […] PBMCs were isolated and plated at 100,000 per well in 96 well plates with a volume of 197 μL. They were allowed to settle in the media for 20 hr, at which point 1 μL of 1 mg/mL phytohemagglutinin (Sigma—St. Loius Mo.) in PBS was added to stimulate proliferation (final concentration of 5 μg/mL). […] Cell proliferation was measured at t=0 (time at start of treatment) and t=72 hr using MTS AQueous non-radioactive proliferation assay (Promega—Madison, Wis.). This assay utilizes the metabolic conversion of yellow tetrazolium to a purple formazan by live cells and the color change is proportional to the number of cells. […] The absorbance at 490 nm in each well was read with a Spectramax 250 plate reader (Molecular Devices—Sunnyvale, Calif.). […] Data were fit to one site dose response curves in order to obtain specific growth inhibitory concentrations and the relative standard errors of the mean for these concentrations were calculated by the XLfit4 software. Statistical significance (p value) for the selectivity and all subsequent assays was determined with the two tailed homoscedastic Student's t-test. […]

[2] = test system: pBR322 plasmid DNA; assay: DNA intercalation assay (topoisomerase I based plasmid DNA unwinding); type: biochemical; details: 10, 31.6, and 100 μM, human topoisomerase I
Protocol: DNA Intercalation Assay: A DNA unwinding assay was performed as previously described with minor modifications. Four Units of recombinant wild type human topoisomerase I (Topogen—Port Orange, Fla.) were incubated with reaction buffer (included with enzyme), ˜0.5 μg of pBR322 plasmid DNA, which is a mixture of form I and form II plasmid DNA, and water added to a final volume of 19 μL. The reactions were incubated at 37° C. for 30 min and then 1 μL of each compound was added to give a final concentration of 10, 31.6, and 100 μM (final solvent concentration of 1% DMSO) and the reaction mixture was incubated at 37° C. for another 30 min. The reaction was stopped by the addition of 5 μL gel loading dye. The samples were immediately loaded onto a 1% agarose gel and electrophoresis was performed at 50 V for 3 h at room temperature. Pictures of the gels were obtained using a Kodak Image Station 440 CF (Kodak—Rochester, N.Y.) equipped with a UV source.
This activity depends on the ability of these compounds to intercalate DNA, which is the proposed mechanism of cytotoxic action of amonafide and its analogs. Therefore, the intercalation of plasmid DNA by A1-A9 was compared with the intercalation by amonafide to determine if they behave similarly. A topoisomerase I (topo I) based plasmid DNA unwinding assay was used to determine the intercalation of each compound [1]. […]

[3] = test system: HeLa cells; assay: Transwell invasion assay; type: cell-based, human; details: [GI99%], matrigel, 20 hr
Protocol: Transwell Invasion Assay: HeLa cells were plated at 250,000 per 35 mm well and allowed to attach for 8 hr. The cells were washed with PBS and then treated for 4 hr with the [GI99%] of each compound (or 1% DMSO—vehicle control) in serum free media to decrease the number of invading cells in the beginning of the experiment due to a preliminary lack of drug exposure. The cells were then trypsinized and counted by trypan blue exclusion with a hemacytometer (Sigma—St. Louis, Mo.). Eight micron pore size control well inserts for 12 well plates (BD Biosciences) were coated with 100 μL 1 mg/mL matrigel (Sigma—St. Louis, Mo.) and allowed to solidify at room temperature for 1 hr. The excess matrigel was aspirated and the inserts were gently washed with PBS. The cells were seeded at a density of 300,000 per insert well in a volume of 500 μL serum free media containing a derivative or vehicle. The inserts were then placed in wells containing 700 μL serum free media with the respective compound. After 20 hr the cells on the top of the membranes were gently removed with a cotton swab, the membranes then were fixed in methanol for 1 min, stained in Gills No. 3 Hematoxylin (Sigma—St. Louis, Mo.) for 5 min, rinsed in tap water, and allowed to dry overnight. The membranes were excised, mounted on slides, and the cells were counted under the 40× objective of a bright field microscope. The data are expressed as the average total number of invading cells counted in 20 fields of each membrane, as standardized to the vehicle control, from six experiments.
Effect of derivatives on the malignant phenotype—invasion assay: If A1-A9 have differential targets, DNA binding specificity, or downstream effects they may differentially alter the malignant behavior of cells. Also, anti-cancer compounds can be efficacious against tumors in other ways besides inhibiting growth and inducing death of cancer cells; they can also alter the behavior of malignant cells. Therefore, the ability of A1-A9 and amonafide to alter the invasive behavior of cancer cells in a transwell (also known as Boyden chamber) invasion assay was evaluated, which determines the ability of cells to migrate through a proteinacious gel. This behavior is considered to be representative of cancer cell invasion through the basement membrane of the primary tumor environment. In this assay, treated cells are seeded on to the top of the matrigel-coated porous membrane, allowed to invade through the proteinacious gel onto the underside of the membrane, and then counted.

[4] = test system: HeLa, PC-3M, and MDA-MB-231; assay: MTS growth inhibition assay, human cancer cell lines; type: cell-based; details: 72 hr, MTS proliferation assay
Protocol: Cell Culture: HeLa (cervical carcinoma), WI-38 (normal human […] fibroblasts), and MDA-MB-231 (breast carcinoma), cells were cultured in DMEM (Invitrogen—Carlsbad, Calif.) and PC-3M (metastatic prostate carcinoma) cells were cultured in RPMI-1640. Peripheral blood mononuclear cells (PBMCs) were voluntarily collected from a healthy laboratory worker by standard sterile phlebotomy techniques and isolated using Vacutainer CPT collection tubes (BD Biosciences—Bedford, Mass.). PBMCs were isolated freshly for each experiment. All DMEM and RPMI-1640 media was supplemented with 10% FBS (Atlanta Biologicals—Lawrenceville, Ga.) and 100 U/mL penicillin and streptomycin (Invitrogen). […]
Growth Inhibition Assays: HeLa, MDA-MB-231, PC-3M, WI-38, and HUVEC cells were plated at 5,000 cells per well in 96 well plates and allowed to attach for 20 hr (8 hr for HeLa). […] Cell proliferation was measured at t=0 (time at start of treatment) and t=72 hr using MTS AQueous non-radioactive proliferation assay (Promega—Madison, Wis.). […] The absorbance at 490 nm in each well was read with a Spectramax 250 plate reader (Molecular Devices—Sunnyvale, Calif.). […] Data were fit to one site dose response curves in order to obtain specific growth inhibitory concentrations and the relative standard errors of the mean for these concentrations were calculated by the XLfit4 software. […]

[5] = test system: Chk2; assay: DNA damage response assay (pThr68-Chk2 / total Chk2 western blot); type: cell-based, human; details: HeLa cells, [GI99%], 20 hr, normalized to mitoxantrone
Protocol: DNA Damage Response Assay: 250,000 HeLa cells were plated in 35 mm culture dishes and allowed to attach for 8 hr and were then treated with the [GI99%] of each compound for 20 hr (total media volume was […] with 1% DMSO). After treatment cells were lysed in 150 μL detergent buffer containing 1:100 v/v protease inhibitor cocktail (Sigma—St. Louis, Mo.). Lysates were run on denaturing 12% acrylamide gels and transferred to nitrocellulose membranes. The membranes were blocked in blotto, incubated in anti-pThr68-Chk2 antibody (Cell Signaling—Danvers, Mass.) at 1:500 v/v dilution in blotto overnight 4° C., washed, incubated in HRP conjugated anti-rabbit secondary antibody (Jackson) at 1:5,000 v/v dilution in blotto for 1 hr, and then developed. The membranes were then stripped with a reducing buffer, blocked in blotto, incubated in anti-Chk2 antibody (Biolegend—San Diego, Calif.) at 1:500 v/v dilution in blotto overnight at 4° C., washed, incubated in HRP conjugated anti-mouse secondary antibody (Jackson) at 1:5,000 v/v dilution in blotto for 1 hr, and then developed. Membranes were developed with PicoWest Developing Solution (Pierce) and exposed to film. The intensities of bands were quantified as described in the previous section. The data are expressed as the average ratio of pThr68-Chk2 to total Chk2 as normalized to the mitoxantrone control in each of three independent experiments.
Topoisomerase inhibition by most mechanisms should cause activation of DNA damage response pathways because of the production of single and double strand DNA breaks, as is the case with amonafide. […] Therefore, measuring the DNA damage response at a fixed cytotoxic dose ([GI99%]) will determine the extent that DNA damage contributes to the cytotoxicity of these compounds. […] Activation of Chk2 was determined by measuring the ratio of pThr68-Chk2 to total Chk2 in HeLa cells treated with the [GI99%].

`CCCCCCNc1ccc2c3c(cccc13)C(=O)N(CCN(C)C)C2=O` [A5, 6-hexylamino-2-[2-(dimethylamino)ethyl]-1H-benz[de]isoquinoline-1,3(2H)-dione] was tested, and the “cancer cell selective growth inhibition (selectivity)” value [1] was “doing so significantly (p<0.05)” and the DNA intercalation [2] was “intercalates much less than the other compounds”.

In the case of `CN(C)CCN1C(=O)c2cccc3cccc(c23)C1=O` [A9, 2-[2-(dimethylamino)ethyl]-1H-benz[de]isoquinoline-1,3(2H)-dione], the “invasive behavior (% invading cells vs vehicle)” value [3] is reported as “decreases invasive behavior”, the growth inhibition potency [4] is reported as “still remains fairly potent” and the “DNA damage response (ratio of pThr68-Chk2 to total Chk2)” value [5] is reported as “evoked the strongest DNA damage response”.
